Patent US20220304307A1, “SYNERGISTIC MIXTURES FOR ARTHROPOD TOXICITY AND REPELLENCY” (University of Florida Research Foundation, Incorporated, priority 2019, published 2022)
Where two headings read alike, the source gives them in different places.

Columns and labels:
[1] = tested on: Orlando insecticide-susceptible strain of Ae. aegypti (female mosquitoes); experiment: Glass tube spatial repellency assay; type: in vivo, Aedes aegypti; design: 1 h EC50-OR (repellency): unit not given here; settings: for repellency EC50 (+TFA): applied as mixture with TFA (50 μg/cm^2); for synergist ratio SR (EC50 compound alone/EC50 compound+TFA): repellency, TFA 50 μg/cm^2 as mixture; for 15 min repellency ratio / 30 min repellency ratio / 1 hr repellency ratio: horizontal tube, 0.5=0% repellency, 0=100% repellency; for 1 h EC50-OR (repellency): OR strain; for repellency at highest concentration tested (words): 1-2 mg/cm^2
Experimental: (§1) The following assay was conducted according to the procedures of Jiang et al., 2019 (Jiang S., Yang L, and Bloomquist J (2019) High-throughput screening method for evaluating spatial repellency and vapor toxicity to mosquitoes. Med. Vet. Entomol.). For assessing behavioral repellency (FIG. 1), sixteen female Aedes aegypti mosquitoes were transferred to a glass tube (12.5 cm long, 2.5 cm outer diameter) with the ends covered with netting. Metofluthrin, bifenthrin, permethrin, pyrethrum, transfluthrin, deltamethrin, esfenvalerate, metofluthrin acid, bifenthrin acid, phenothrin acid, transchryanthemic acid, transfluthrin acid, deltamethrin acid, and fenvalerate acid were each dissolved in 1 mL of acetone and serial dilutions ranging from 30-0.01 μg/ml were made. Circular filter papers (5 cm^2) were saturated with 50 μL of each concentration and allowed 10 min for solvent evaporation. The filter papers were then placed in clear conical polypropylene caps and fixed to the end of the glass tubes. The netting prevented mosquito contact with the filter paper. Tubes were then aligned with a mark denoting the midline and the proportion of mosquitoes on the chemically treated side was scored at 15, 30, and 60 min. At the end of the test, the tube was placed in a cage and the ability of the mosquitoes to fly out of the tube was assessed for 30 min. […] This post-test evaluated whether any non-responding mosquitoes (not repelled) was due to intoxication or disorientation from the test chemical. For vapor toxicity, the assay was identical, except that mosquitoes were kept in the tube for 24 hr without the post-test at 1 hr, and the mortality was recorded at 24 hr.

[2] = tested on: pyrethroid-resistant Puerto Rico (PR) strain of Ae. aegypti; experiment: Glass tube spatial repellency assay, resistant strain; type: in vivo, Aedes aegypti; design: 1 h EC50-PR (repellency): unit not given here; settings: compound alone; for RR (PR EC50/OR EC50): repellency resistance ratio; for 1 h EC50-PR (repellency): PR strain
Experimental: as §1
EC50 values were calculated from non-linear regression to a four parameter logistic equation (Prism, GraphPad Software, San Diego, Calif.) of the curves shown in FIG. 4. RR=resistance ratio. NA=data not yet available.

[3] = tested on: female Ae. aegypti; experiment: Human arm bite protection assay; type: in vivo, Aedes aegypti; settings: for MED values Female 10: as E30, volunteer one; for MED values Female 9: as E30, volunteer two; for MED Mean: mean of three human volunteers; for MED values Male 4: minimum amount preventing 99% of bites, treated cloth patch, 1 min in cage, mixtures with TFA 0.047 or TCA 0.094 mg/cm^2
Experimental: A human bite protection assay was performed according to see if the repellency observed in glass tubes extended to bite protection. The assay was run in accordance with that of Tsikolia et al. (Tsikolia M, Bernier UR, Coy M, Chalaire K, Becnel J, Agramonte N, Tabanca N, Wedge D, Clark G, Linthicum K, Swale D, and J. R. Bloomquist J (2013) Insecticidal and fungicidal properties of novel trifluoromethylphenyl amides. Pestic. Biochem. Physiol. 107, 138-147). Treated cloth patches were worn by human volunteers and the number of blood fed mosquitoes was determined after 1 min spent in a cage with 500 (±10%) female Ae. aegypti. Minimum Effective Dosage (MED in mg/cm^2) is the minimum amount required to prevent 99% of bites in three human volunteers (UF IRB #201602334). Synergist ratio (SR)=MED chemical alone/MED chemical+TFA (0.047 mg/cm^2) or TCA (0.094 mg/cm^2).

[4] = tested on: insecticide-susceptible Aedes aegypti (Orlando strain) females; experiment: Glass tube vapor toxicity assay (24 hr mortality); settings: for 24 hr mort (%): horizontal tube; for mortality at 100 µg/cm2: Aedes aegypti
Experimental: as §1
Synergism ratio (SR)=LC50 pyrethroid/LC50 pyrethroid+EO.

[5] = tested on: pyrethroid-resistant Puerto Rico strain of Ae. aegypti; experiment: Glass tube vapor toxicity assay, resistant strain; type: in vivo, Aedes aegypti
Description: The netting prevented mosquito contact with the filter paper.
The vapor toxicity of metofluthrin alone and in combination with citronella oil (CO) on susceptible Orlando and pyrethroid-resistant Puerto Rico strains of Ae. aegypti was investigated. The results are provided in Table 10 and in FIGS. 26 and 27. […] Synergism ratio (SR)=LC50 metofluthrin/LC50 metofluthrin+citronella. […] Resistance ratio (RR)=LC50 metofluthrin[…] on Puerto Rico/LC50 metofluthrin on Orlando.
Next, the vapor toxicity of empenthrin applied to two strains of Aedes aegypti, the pyrethroid-susceptible Orlando and pyrethroid-resistant Puerto Rico strain, was investigated. Empenthrin was applied alone and in combination with citronella oil (100 μg/cm^2, a nontoxic exposure). The RR for empenthrin alone was 5.7-fold.

[6] = 0.25 h, read-out: 15 min % mortality
[7] = 0.5 h, read-out: 30 min % mortality
[8] = 1 h, read-out: 1 hr % mortality

Molecule	RR (PR EC50/OR EC50) [2]	15 min repellency ratio ([1]; 10 μg/cm^2)	30 min repellency ratio ([1]; 10 μg/cm^2)	1 hr repellency ratio ([1]; 10 μg/cm^2)	24 hr mort (%) ([4]; 10 μg/cm^2)	24 hr mort (%) ([4]; 100 μg/cm^2)	15 min repellency ratio ([1]; 100 μg/cm^2)	30 min repellency ratio ([1]; 100 μg/cm^2)	1 hr repellency ratio ([1]; 100 μg/cm^2)	also measured
CC(C)=C[C@@H]1[C@@H](C(=O)O)C1(C)C (relative stereo) [TCA, 1-R-trans-chrysanthemic acid]	1.9									repellency ([1]; TCA alone at 10 μg/cm^2): 25%; repellency EC50 (+TFA) ([1]; 1 hr): 1.3 μg/cm^2; repellency EC50 ([1]; compound alone, 1 hr): 20 μg/cm^2; synergist ratio SR (EC50 compound alone/EC50 compound+TFA) [1]: 15; MED values Female 10 [3]: 0.375 mg/cm^2; MED values Female 9 [3]: 0.187 mg/cm^2; MED Mean [3]: 0.312 mg/cm^2; MED values Male 4 [3]: 0.375 mg/cm^2
O=Cc1cccc(Cl)c1 [3-chlorobenzaldehyde]		0.28	0.34	0.41	31.3	100.0				mortality at 100 µg/cm2 [4, 6]: 50%; mortality at 100 µg/cm2 [4, 7]: 75%; mortality at 100 µg/cm2 [4, 8]: 100%
O=Cc1cccc(C(=O)O)c1 [3-formyl benzoic acid]		0.50	0.47	0.47	6.3	9.4	0.53	0.56	0.56	
O=Cc1cccc(O)c1 [3-hydroxybenzaldehyde]		0.56	0.53	0.56	21.9	15.6	0.41	0.41	0.56	
CC(C)(C)c1cccc(C=O)c1 [3-tert-butylbenzaldehyde]		0.31	0.25	0.31	6.3	81.3				mortality at 100 µg/cm2 [4, 6]: 96.9%; mortality at 100 µg/cm2 [4, 7]: 100%; mortality at 100 µg/cm2 [4, 8]: 100%
C=Cc1cccc(C=O)c1 [3-vinylbenzaldehyde]		0.50	0.50	0.31	100.0	6.3	0.19	0.25	0.19	
CC1(C)C(C=C(Cl)C(F)(F)F)C1C(=O)O (stereo not drawn) [BFA, bifenthrin acid]	0.8									1 h EC50-OR (repellency) ([1]; compound alone, 1 hr): 14; 1 h EC50-PR (repellency) [2]: 11
CC(C)[C@H](C(=O)O)c1ccc(Cl)cc1 [FVA, fenvalerate acid]	1.7									
CC=CC1C(C(=O)O)C1(C)C (stereo not drawn) [MFA, metofluthrin acid]	1.3									1 h EC50-OR (repellency) ([1]; compound alone, 1 hr): 14; 1 h EC50-PR (repellency) [2]: 18
CC(C)=CC1C(C(=O)O)C1(C)C (stereo not drawn) [PhenA, phenothrin acid]	0.8									
O=Cc1cccc(-c2ccccc2)c1 [biphenyl-3-carboxaldehyde]		0.44	0.38	0.38	50.0	6.3	0.44	0.31	0.19	
C#CC(OC(=O)C1C(C=C(C)C)C1(C)C)/C(C)=C/CC (stereo not drawn) [empenthrin]										effect of citronella oil on resistance to vapor toxicity ([5]; citronella oil 100 μg/cm^2, Puerto Rico strain): reversed resistance; resistance ratio RR, vapor toxicity ([5]; pyrethroid alone, Puerto Rico vs Orlando): 5.7
O=Cc1cccc(C=O)c1 [isophthalaldehdye]		0.41	0.41	0.41	40.6	87.5	0.03	0.09	0.06	
CC1(C)C(C=C(Cl)Cl)C1C(=O)OCc1cccc(Oc2ccccc2)c1 (stereo not drawn) [permethrin, 3-phenoxybenzyl 3-(β,β-dichlorovinyl)-2,2-dimethylcyclopropanecarboxylate, reference compound]										spatial repellency in screening ([1]; 100 μg/cm^2, 1 hr exposure, compound alone): inactive as vapor phase repellents; effect of TFA on repellency, applied as mixture ([1]; TFA 50 μg/cm^2 + EC20 of test compound (permethrin 30 μg/cm^2), 1 hr): some spatial repellency; repellency EC50 (+TFA) ([1]; 1 hr): 9.5 μg/cm^2; repellency at highest concentration tested (words) ([1]; compound alone): repellency was not observed; repellency at highest concentration tested (words) ([1]; compound alone, listed as Permethrin): inactive; repellency EC50 ([1]; compound alone, 1 hr): >1000 μg/cm^2; synergist ratio SR (EC50 compound alone/EC50 compound+TFA) [1]: >105; MED values Female 10 [3]: 0.187 mg/cm^2; MED values Female 9 [3]: 0.187 mg/cm^2; MED Mean [3]: 0.187 mg/cm^2; MED values Male 4 [3]: 0.187 mg/cm^2
trifluoromethoxybenzaldehyde		0.38	0.38	0.44	6.3	0.0	0.31	0.31	0.50	
α, α, α-trifluoromethyltolualdehyde		0.38	0.44	0.31	0.0	0.0	0.38	0.50	0.63	
